From article PMC4877059 (Journal of medicinal chemistry, 2013)
Read-outs that look alike come from different tables or passages of the source.

Assays:
[1] = system: NPS-induced hyperlocomotion; conditions: 50 mpk IP, 90 minute mouse model; cited from earlier work
[2] = 15 min; cited from earlier work
NPSR [3] = target: T1, NPSR (Homo sapiens, UniProt Q6W5P4); assay: ERK assay; assay type: cell-based
T1 sequence (Q6W5P4 1-371): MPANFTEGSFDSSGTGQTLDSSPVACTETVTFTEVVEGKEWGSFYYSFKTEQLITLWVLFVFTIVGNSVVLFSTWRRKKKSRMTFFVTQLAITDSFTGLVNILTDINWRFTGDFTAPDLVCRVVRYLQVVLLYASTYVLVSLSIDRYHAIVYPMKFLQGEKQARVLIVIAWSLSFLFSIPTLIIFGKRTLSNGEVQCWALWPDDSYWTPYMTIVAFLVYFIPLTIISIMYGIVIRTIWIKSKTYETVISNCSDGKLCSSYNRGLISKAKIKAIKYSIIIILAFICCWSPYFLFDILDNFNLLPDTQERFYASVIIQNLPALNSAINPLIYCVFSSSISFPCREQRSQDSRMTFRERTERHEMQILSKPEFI

NPSR [4] = target: T1, NPSR; assay: Calcium mobilization assay in CHO-NPSR cells; assay type: cell-based
[5] = target: Human Recombinant µ-Opioid Receptor OPRM1 (Homo sapiens, UniProt P35372); assay type: binding
[6] = Mouse pharmacokinetics, 10 mpk IP; assay type: in vivo
[7] = Stability after incubation in mouse liver microsomes; conditions: 0 min
ERK phosphorylation = conditions: rats, 1 mpk; cited from earlier work
Solubility in PBS = assay type: physicochemical; conditions: aqueous buffer
rats = conditions: cited from earlier work
NPSR [8] = target: T1, NPSR; assay: cAMP assay; assay type: cell-based; conditions: relative to 1b
55 targets = assay: Profiling at 10 µM against 55 targets
Wistar rats [9] = assay: Rat palatable food intake model; assay type: in vivo
NPSR [10] = target: T1, NPSR; assay: [125I] Y10-hNPS binding; conditions: relative to 1b
[11] = 0 h
NPSR [12] = conditions: 30 mpk IP, discrete regions of the rat brain; cited from earlier work
[13] = Stability in aqueous buffers; assay type: physicochemical; conditions: HBBS or PBS, 48 hours
Wistar rats [14] = conditions: rat food intake model; cited from earlier work

Chain of Human Recombinant µ-Opioid Receptor OPRM1 (P35372 whole entry): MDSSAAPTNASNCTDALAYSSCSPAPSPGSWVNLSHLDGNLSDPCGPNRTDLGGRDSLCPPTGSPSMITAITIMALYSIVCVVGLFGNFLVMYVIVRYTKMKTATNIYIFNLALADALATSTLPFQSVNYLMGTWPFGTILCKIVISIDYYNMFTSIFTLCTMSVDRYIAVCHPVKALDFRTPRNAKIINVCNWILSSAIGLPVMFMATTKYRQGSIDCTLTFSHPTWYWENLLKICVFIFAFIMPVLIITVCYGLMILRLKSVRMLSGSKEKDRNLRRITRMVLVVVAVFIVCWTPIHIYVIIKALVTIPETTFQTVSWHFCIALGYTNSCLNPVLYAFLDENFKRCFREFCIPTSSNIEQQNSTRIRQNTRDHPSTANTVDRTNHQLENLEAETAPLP

Question: For `O=C(NCc1ccc(F)cc1)N1CCN2C(=O)OC(c3ccccc3)(c3ccccc3)C2C1` (centres unmarked) [1b, 3-oxo-1,1-diphenyl-tetrahydro-oxazolo[3,4-a]pyrazine-7-carboxylic acid 4-fluoro-benzylamide], which “reduction of NPS-induced hyperlocomotion” value [1] is on record?
Answer: The value was “about 50%”.

Question: What about the brain level [2] of the same molecule?
Answer: Its brain level is ~6000 nM.

Question: Which IC50 (NPSR [3]; ERK IC50, Table 1, CHO-NPS cells, 1 nM NPS (EC80), one experiment in duplicate) does the source give for `Cc1nc2ccccn2c1P(=S)(c1ccccc1)c1ccccc1` [12d, 3-(Diphenylphosphorothioyl)-2-methylimidazo[1,2-a]pyridine] here?
Answer: Its IC50 is 30 nM.

Question: With `C[n+]1cc(P(=S)(c2ccccc2)c2ccccc2)n2ccccc21` [13a, 3-(Diphenylphosphorothioyl)-1-methylimidazo[1,2-a]pyridin-1-ium] as the molecule, how does the “ERK assay inhibition at the highest concentration tested” value (NPSR [3]; Table 1 footnote b, 50 µM) read?
Answer: The value was <50% ^b.

Question: For `Cc1c(P(=S)(c2ccccc2)c2ccccc2)n2ccccc2[n+]1CCCc1ccccc1` [20d, 3-(Diphenylphosphorothioyl)-2-methyl-1-(3-phenylpropyl)imidazo[1,2-a]pyridin-1-ium], which IC50 (NPSR [3]; IC50 in the ERK assay) is on record?
Answer: Its IC50 is 2 nM.

Question: And the IC50 (NPSR [4]; IC50 in the calcium assay)?
Answer: The IC50 was 1 nM.

Question: Which “fold activity relative to naloxone or morphine, DAMGO displacement” value [5] does the source give for `Cc1c(P(=S)(c2ccccc2)c2ccccc2)n2ccccc2[n+]1C/C=C/c1ccccc1.[Br-]` [20e, 1-Cinnamyl-3-(diphenylphosphorothioyl)-2-methylimidazo[1,2-a]pyridin-1-ium] here?
Answer: The value was < 200 fold.

Question: What about the “Brain concentration, mean” value ([6]; 10 mpk IP, 0 hr) of the same molecule?
Answer: Its value is “BQL”.

Question: And the “Plasma concentration, mean” value ([6]; 10 mpk IP, 0 hr)?
Answer: Its value is “BQL”.

Question: What about the “Brain concentration, mean” value ([6]; 10 mpk IP, 0 hr, N=3) of the same molecule?
Answer: Its value is “BQL”.

Question: And the “Plasma concentration, mean” value ([6]; 10 mpk IP, 0 hr, N=3)?
Answer: The value was “BQL”.

Question: What about the “Brain concentration, mean” value ([6]; 10 mpk IP, 0.083 hr) of the same molecule?
Answer: The value was 30 nmol/g.

Question: And the “Brain concentration, mean” value ([6]; 10 mpk IP, 0.25 hr)?
Answer: The value was 52 nmol/g.

Question: And the “Brain concentration, mean” value ([6]; 10 mpk IP, 0.5 hr)?
Answer: Its value is 53 nmol/g.

Question: What about the “Brain concentration, mean” value ([6]; 10 mpk IP, 1 hr) of the same molecule?
Answer: The value was 44 nmol/g.

Question: What about the “Brain concentration, mean” value ([6]; 10 mpk IP, 2 hr) of the same molecule?
Answer: Its value is 57 nmol/g.

Question: And the “Brain concentration, mean” value ([6]; 10 mpk IP, 4 hr)?
Answer: The value was 53 nmol/g.

Question: What about the “Brain concentration, mean” value ([6]; 10 mpk IP, 8 hr) of the same molecule?
Answer: The value was 60 nmol/g.

Question: And the “Brain concentration, mean” value ([6]; 10 mpk IP, 12 hr)?
Answer: Its value is 93 nmol/g.

Question: And the “Brain concentration, mean” value ([6]; 10 mpk IP, 24 hr)?
Answer: The value was 52 nmol/g.

Question: What about the concentration at 1 h ([6]; plasma, ip, 10 mg/kg, Plasma concentration, mean, 10 mpk IP, 1 hr) of the same molecule?
Answer: The concentration at 1 h was 556 nM.

Question: What about the concentration at 2 h ([6]; plasma, ip, 10 mg/kg, Plasma concentration, mean, 10 mpk IP, 2 hr) of the same molecule?
Answer: Its concentration at 2 h is 386 nM.

Question: And the concentration at 4 h ([6]; plasma, ip, 10 mg/kg, Plasma concentration, mean, 10 mpk IP, 4 hr)?
Answer: Its concentration at 4 h is 245 nM.

Question: And the concentration at 8 h ([6]; plasma, ip, 10 mg/kg, Plasma concentration, mean, 10 mpk IP, 8 hr)?
Answer: The concentration at 8 h was 214 nM.

Question: What about the concentration at 12 h ([6]; plasma, ip, 10 mg/kg, Plasma concentration, mean, 10 mpk IP, 12 hr) of the same molecule?
Answer: The concentration at 12 h was 126 nM.

Question: What about the concentration at 24 h ([6]; plasma, ip, 10 mg/kg, Plasma concentration, mean, 10 mpk IP, 24 hr) of the same molecule?
Answer: The concentration at 24 h was 54 nM.

Question: And the adverse reactions ([6]; single 10 mpk IP dose)?
Answer: The adverse reactions was “No adverse reactions were observed”.

Question: What about the “fold more potent than 1b in the calcium assay” value (NPSR [4]; relative to 1b) of the same molecule?
Answer: The value was 5 fold.

Question: And the “% parent compd remaining after incubation in mouse liver microsomes” value ([7]; with NADPH)?
Answer: The value was 100%.

Question: And the “% parent compd remaining after incubation in mouse liver microsomes” value ([7]; without NADPH)?
Answer: Its value is 94%.

Question: And the “alcohol induced ERK phosphorylation in the central amygdala” value (ERK phosphorylation)?
Answer: Its value is “reduce alcohol induced ERK phosphorylation”.

Question: And the solubility kinetic (Solubility in PBS; kinetic from dmso stock)?
Answer: Its solubility kinetic is > 150 µM.

Question: What about the solubility thermodynamic (Solubility in PBS; thermodynamic from solid) of the same molecule?
Answer: Its solubility thermodynamic is ~45 µM.

Question: What about the “efficacy in rat alcohol models” value (rats; IP dose of 1.0 mpk) of the same molecule?
Answer: The value was “show efficacy”.

Question: And the “alcohol self administration in rats” value (rats; dose as low as 1 mpk)?
Answer: The value was “supression of alcohol self administartion”.

Question: What about the “fold more potent than 1b in the cAMP assay” value (NPSR [8]) of the same molecule?
Answer: The value was 9 fold.

Question: And the “inhibition of control in seven of 55 targets” value (55 targets)?
Answer: Its value is > 90%.

Question: And the “reversal of NPS-induced suppression of palatable food intake” value (Wistar rats [9]; single 10 µg icv, before 10 µg NPS icv, 15, 30 and 60 min)?
Answer: The value was “reverse the suppression of food intake”.

Question: What about the “fold more potent than 1b in the displacement assay” value (NPSR [10]) of the same molecule?
Answer: Its value is 5 fold.

Question: Which results are given for `CCC(C)(CCN1CCOCC1)N(Cc1cc2ccccc2n(C)c1=O)C(=O)C1CCCCC1` (centres unmarked) [compound 2]?
Answer: % parent compd remaining after incubation in mouse liver microsomes [11]: 100%; ex vivo occupancy of NPSR (NPSR [12]): high ex vivo occupancy of NPSR

Question: For `Cc1c(P(=S)(c2ccccc2)c2ccccc2)[n+]2ccccc2n1C.[I-]` [compound 7, 3-(diphenylphosphorothioyl)-1,2-dimethylimidazo[1,2-a]pyridin-1-ium], which “chemical stability in aqueous buffers” value [13] is on record?
Answer: The value was “did not decompose to any other species”.

Question: With “NPS: neuropeptide S, peptide sequence SFRNGVGTGMKKTSFQRAKS, endogenous agonist of NPSR [reference compound]” as the molecule, how does the palatable food intake (Wistar rats [9]; 10 µg NPS icv, 15, 30 and 60 min) read?
Answer: The palatable food intake was “marked reduction in food intake”.

Question: Which “reversal of the anorectic effect of NPS” value (Wistar rats [14]) does the source give for [D-Cys(tBU)^5]NPS here?
Answer: Its value is “reverse the anorectic effect of NPS”.
